# pIC50: −log10 of the molar value. Like-named read-outs stand apart in the source and are kept apart here.
# Experiments:
# [1] = biological target: T1, AmpC β-lactamase (Escherichia coli, UniProt P00811); test: biochemical; parameters: made in house; details: for IC50 compared to cefotaxime (fold lower): relative to cefotaxime IC50
# [2] = tested on: E. coli not expressing AmpC β-lactamase; test: microbe, parasite or virus in culture; format: cell-based; details: for Minimum inhibitory concentration (MIC): E. coli not expressing AmpC β-lactamase, Luria Broth, about 5×10^5 CFU/mL
# Procedure: (§1) Microbiology. Serial dilution assays in ligand culture were performed to examine the efficacy of these awkward β-lactams against clinically relevant pathogens grown in liquid culture (Table 3). The compounds were dissolved in KPi or tris hydroxymethyl aminomethane hydrochloride to a concentration of 20-50 mM, and serial dilutions were performed into Luria Broth (Difco, Detroit Mich.). Each broth solution was then inoculated with bacterial cells from an overnight culture that had been diluted to give an inoculum concentration of approximately 5×10^5 CFU/mL.
# [3] = tested on: E. coli expressing AmpC β-lactamase; test: microbe, parasite or virus in culture; format: cell-based; details: for Minimum inhibitory concentration (MIC): E. coli expressing AmpC β-lactamase, Luria Broth, about 5×10^5 CFU/mL
# Procedure: as §1
# [4] = biological target: T1, AmpC β-lactamase; details: hydrolysis by AmpC, 1.75 nM enzyme, 50 mM Tris pH 7
# Procedure: Escherichia coli. AmpC β-lactamase was expressed and purified to homogeneity as previously described. The AmpC-catalyzed hydrolysis of the various β-lactams was monitored in an HP8453 UV/visible spectrophotometer. […] The reaction buffer used during the assays was 50 mM tris hydroxymethyl aminomethane hydrochloride (Fisher, Fair Lawn N.J.) at pH 7 in doubly-deionized water. kcat and KM values were determined at an enzyme concentration of 1.75 nM, with enzyme concentration determined, from more concentrated stocks, based on an ε280 of 0.098 μM^−1 cm^−1. […] Except for compounds synthesized for this study (ATMO-penicillin, ATMO-loracarbef), all compounds were used as supplied from the manufacturers without further purification.
# Enzymology. The AmpC-catalyzed hydrolysis of the β-lactams cefotaxime, ATMO-penicillin, and ATMO-loracarbef (FIG. 1B) were monitored by UV-vis spectroscopy (Table 1).
# [5] = tested on: CC(=O)OCC1=C(C(=O)O)N2C(=O)[C@@H](NC(=O)Cc3cccs3)[C@H]2SC1; test: purified protein, by the assay type; details: other: hydrolysis by AmpC, 1.75 nM enzyme, 50 mM Tris pH 7
# [6] = tested on: CO/N=C(\C(=O)N[C@@H]1C(=O)N2C(C(=O)O)=C(COC(C)=O)CS[C@H]12)c1csc(N)n1; test: purified protein, by the assay type; details: other: hydrolysis by AmpC, 1.75 nM enzyme, 50 mM Tris pH 7
# [7] = tested on: CO/N=C(\C(=O)N[C@@H]1C(=O)N2[C@@H]1SC(C)(C)[C@@H]2C(=O)O)c1csc(N)n1; test: purified protein, by the assay type; details: other: hydrolysis by AmpC, 1.75 nM enzyme, 50 mM Tris pH 7
# [8] = Escherichia coli, read-out: Minimum inhibitory concentration (MIC)
# T1 sequence (P00811 20-377): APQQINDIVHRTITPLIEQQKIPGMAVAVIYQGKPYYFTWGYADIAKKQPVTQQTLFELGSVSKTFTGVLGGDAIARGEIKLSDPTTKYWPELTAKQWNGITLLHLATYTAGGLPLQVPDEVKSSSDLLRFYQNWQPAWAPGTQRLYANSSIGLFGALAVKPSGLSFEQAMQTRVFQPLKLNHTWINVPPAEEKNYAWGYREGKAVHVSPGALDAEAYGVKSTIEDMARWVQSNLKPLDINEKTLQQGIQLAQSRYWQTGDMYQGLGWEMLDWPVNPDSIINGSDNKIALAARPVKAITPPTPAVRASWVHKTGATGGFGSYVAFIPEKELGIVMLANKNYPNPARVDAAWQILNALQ
compound,measurement,setting,value
"CON=C(C(=O)NC1C(=O)N2C(C(=O)O)=C(Cl)CCC12)c1csc(N)n1 (centres unmarked) [ATMO-loracarbef, 7-ATMO-3-chloro-carbacephem]",pIC50,"[1]; against 200 μM nitrocefin, read-out: IC50",7.10
same,IC50 compared to cefotaxime (fold lower),[1],11 fold
same,Minimum inhibitory concentration (MIC),[2],¼
same,Minimum inhibitory concentration (MIC),[3],1 µg/mL
same,Kcat,[4],0.0323 s⁻¹
CO/N=C(\C(=O)N[C@@H]1C(=O)N2[C@@H]1SC(C)(C)[C@@H]2C(=O)O)c1csc(N)n1 [ATMO-penicillin],pIC50,[1],6.05
same,IC50 compared to cefotaxime (fold lower),[1],comparable to cefotaxime
same,Kcat,[4],< 0.0045 s⁻¹
"CO/N=C(\C(=O)N[C@@H]1C(=O)N2C(C(=O)O)=C(COC(C)=O)CS[C@H]12)c1csc(N)n1 [Cefotaxime, cefotaxime]",pIC50,[1],6.10
same,Minimum inhibitory concentration (MIC),[2],1/128
same,Minimum inhibitory concentration (MIC),[3],1/32
"CC(=O)OCC1=C(C(=O)O)N2C(=O)[C@@H](NC(=O)Cc3cccs3)[C@H]2SC1 [Cephalothin, cephalothin]",MIC,[2]; [8],8 µg/mL
same,MIC,[3]; [8],64 µg/mL
same,Kcat,[4],263 s⁻¹
"N[C@@H](C(=O)N[C@@H]1C(=O)N2C(C(=O)O)=C(Cl)CC[C@H]12)c1ccccc1 [Loracarbef, loracarbef]",Minimum inhibitory concentration (MIC),[2],4 µg/mL
same,Minimum inhibitory concentration (MIC),[3],8 µg/mL
same,Kcat,[4],118.3 s⁻¹
same,Km,[4],23.7 µM
same,Kcat,[4]; listed as loracarbef,118 s⁻¹
"CC1(C)S[C@@H]2[C@H](NC(=O)Cc3ccccc3)C(=O)N2[C@H]1C(=O)O [Penicillin G, penicillin G]",Kcat,[4],133.1 s⁻¹
same,Km,[4],5.05 µM
same,Kcat,[4]; listed as penicillin G,133 s⁻¹
AmpC β-lactamase (Escherichia coli K-12),Km,[5],31.3 µM
same,kcat,[5],262 s⁻¹
same,kcat,[6],0.0448 s⁻¹
same,kcat,[7],< 0.0045 s⁻¹

# Source: US20050245498A1, “Sterically-awkward beta-lactamase inhibitors” (priority 2002, published 2005)
